Experimental data: patent US20150105252A1, “SUBSTITUTED PYRAZOLES AS HERBICIDES” (E I DU PONT DE NEMOURS AND COMPANY, priority 2013, published 2015)

Experiments:
[1] = tested on: morningglory; assay: Test A postemergence; assay type: in vivo, Ipomoea spp.
In short: (§1)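 Pre- and postemergence greenhouse test; loam+sand; cpd in non-phytotox. solvent/surfactant; post at 1–2 leaf, 2–10 cm; visual score ~10 d, 0 = none, 100 = complete control.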

[2] = tested on: chickweed; assay: Test C postemergence; assay type: in vivo, Stellaria media
In short: (§2)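 Visual control ratings on a 0–100 scale (100 = complete control) made against untreated controls after 13 to 15 days in greenhouse. Compounds applied in surfactant-containing solvent mixture, either preemergence to loam/sand-sown seeds or postemergence to 1- to 4-leaf plants (2–18 cm) in peat medium.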

[3] = tested on: galium; assay: Test C postemergence; assay type: in vivo, Galium aparine
In short: as §2

[4] = tested on: johnsongrass; assay: Test C postemergence; assay type: in vivo, Sorghum halepense
In short: as §2

[5] = tested on: ducksalad; assay: Test B flood; assay type: in vivo, Heteranthera limosa; details: 250 g ai/ha, visual rating on 0 to 100 scale (0 no effect, 100 complete control), 13 to 15 days
In short: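 2-leaf plants; pots flooded 3 cm over soil; compound added to paddy water, depth kept constant. Greenhouse 13–15 d. Visual rating vs controls, 0–100 scale (100 = complete control); dash = no result.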

[6] = tested on: foxtail, giant; assay: Test C preemergence; assay type: in vivo, Setaria faberii
In short: as §2

[7] = tested on: oat, wild; assay: Test C postemergence; assay type: in vivo, Avena fatua
In short: as §2

[8] = tested on: foxtail, giant; assay: Test A preemergence; assay type: in vivo, Setaria faberii; details: 0 to 100 scale
In short: as §1

[9] = tested on: waterhemp; assay: Test C postemergence; assay type: in vivo, Amaranthus rudis
In short: as §2

[10] = tested on: waterhemp; assay: Test C preemergence; assay type: in vivo, Amaranthus rudis
In short: as §2

[11] = tested on: foxtail, giant; assay: Test A postemergence; assay type: in vivo, Setaria faberii
In short: as §1

[12] = tested on: crabgrass, large; assay: Test C preemergence; assay type: in vivo, Digitaria sanguinalis
In short: as §2

[13] = tested on: foxtail, giant; assay: Test C postemergence; assay type: in vivo, Setaria faberii
In short: as §2

[14] = Postemergence, 500 g ai/ha, visual rating after approx. 10 days, 0 to 100 scale (0 no effect, 100 complete control)
[15] = postemergence, 125 g ai/ha, about 10 days, visual rating on 0 to 100 scale (0 no effect, 100 complete control)
[16] = Postemergence, 31 g ai/ha, visually evaluated after 13 to 15 days
[17] = postemergence, 62 g ai/ha, scale 0 to 100
[18] = postemergence, 250 g ai/ha, scale 0 to 100 (0 no effect, 100 complete control)
[19] = postemergence, 125 g ai/ha, scale 0 to 100, 0 no effect, 100 complete control
[20] = preemergence, 31 g ai/ha, scale 0 to 100 (0 no effect, 100 complete control), 13 to 15 days
[21] = preemergence, 62 g ai/ha, 13 to 15 days, scale 0 to 100, 0 = no effect, 100 = complete control
[22] = preemergence, 125 g ai/ha, scale 0 to 100, 0 is no effect, 100 is complete control

**Q.** With `CCc1cc(C(=O)NC2CC2)nn1Cc1ccnc(C(F)(F)F)c1` [Compound 76] as the molecule, how does the “Morningglory plant response rating” value [1, 14] read?
**A.** 100

**Q.** What about the “Morningglory plant response rating” value [1, 15] of the same molecule?
**A.** 70

**Q.** What about the “Plant response rating (scale of 0 to 100 where 0 is no effect and 100 is complete control), Chickweed” value [2, 16] of the same molecule?
**A.** 50

**Q.** And the “Chickweed plant response rating” value [2, 17]?
**A.** 80

**Q.** What about the “Plant response rating, Chickweed” value [2, 18] of the same molecule?
**A.** 85

**Q.** And the “Plant response rating, Chickweed” value [2, 19]?
**A.** 80

**Q.** What about the “Plant response rating (scale of 0 to 100 where 0 is no effect and 100 is complete control), Galium” value [3, 16] of the same molecule?
**A.** 70

**Q.** And the “Galium plant response rating” value [3, 17]?
**A.** 75

**Q.** And the “Plant response rating, Galium” value [3, 18]?
**A.** 90

**Q.** What about the “Plant response rating, Galium” value [3, 19] of the same molecule?
**A.** 90

**Q.** What about the “Plant response rating (scale of 0 to 100 where 0 is no effect and 100 is complete control), Johnsongrass” value [4, 16] of the same molecule?
**A.** 0

**Q.** And the “Johnsongrass plant response rating” value [4, 17]?
**A.** 0

**Q.** What about the “Plant response rating, Johnsongrass” value [4, 18] of the same molecule?
**A.** 25

**Q.** And the “Plant response rating, Johnsongrass” value [4, 19]?
**A.** 25

**Q.** What about the “Plant response rating, Ducksalad” value [5] of the same molecule?
**A.** 85

**Q.** And the “Plant response rating (scale of 0 to 100), Foxtail, Giant” value ([6]; Preemergence, 250 g ai/ha)?
**A.** 100

**Q.** What about the “Foxtail, Giant plant response rating” value [6, 20] of the same molecule?
**A.** 100

**Q.** What about the “Plant response rating, Foxtail, Giant” value [6, 21] of the same molecule?
**A.** 100

**Q.** And the “Foxtail, Giant plant response rating” value [6, 22]?
**A.** 100

**Q.** And the “Plant response rating (scale of 0 to 100 where 0 is no effect and 100 is complete control), Oat, Wild” value [7, 16]?
**A.** 5

**Q.** And the “Oat, Wild plant response rating” value [7, 17]?
**A.** 5

**Q.** What about the “Plant response rating, Oat, Wild” value [7, 18] of the same molecule?
**A.** 25

**Q.** And the “Plant response rating, Oat, Wild” value [7, 19]?
**A.** 5

**Q.** What about the “Foxtail, Giant plant response rating” value ([8]; Preemergence, 500 g ai/ha, 0 no effect, 100 complete control) of the same molecule?
**A.** 100

**Q.** And the “Foxtail, Giant plant response rating” value ([8]; preemergence, 125 g ai/ha, visual injury, approx. 10 days)?
**A.** 80

**Q.** And the “Plant response rating (scale of 0 to 100 where 0 is no effect and 100 is complete control), Waterhemp” value [9, 16]?
**A.** 60

**Q.** And the “Waterhemp plant response rating” value [9, 17]?
**A.** 70

**Q.** And the “Plant response rating, Waterhemp” value [9, 18]?
**A.** 100

**Q.** And the “Plant response rating, Waterhemp” value [9, 19]?
**A.** 75

**Q.** And the “Plant response rating (scale of 0 to 100), Waterhemp” value ([10]; Preemergence, 250 g ai/ha)?
**A.** 100

**Q.** And the “Waterhemp plant response rating” value [10, 20]?
**A.** 98

**Q.** What about the “Plant response rating, Waterhemp” value [10, 21] of the same molecule?
**A.** 100

**Q.** And the “Waterhemp plant response rating” value [10, 22]?
**A.** 100

**Q.** What about the “Foxtail, Giant plant response rating” value [11, 14] of the same molecule?
**A.** 100

**Q.** And the “Foxtail, Giant plant response rating” value [11, 15]?
**A.** 80

**Q.** What about the “Plant response rating (scale of 0 to 100), Crabgrass, Large” value ([12]; Preemergence, 250 g ai/ha) of the same molecule?
**A.** 100

**Q.** And the “Crabgrass, Large plant response rating” value [12, 20]?
**A.** 100

**Q.** And the “Plant response rating, Crabgrass, Large” value [12, 21]?
**A.** 100

**Q.** And the “Crabgrass, Large plant response rating” value [12, 22]?
**A.** 100

**Q.** What about the “Plant response rating (scale of 0 to 100 where 0 is no effect and 100 is complete control), Foxtail, Giant” value [13, 16] of the same molecule?
**A.** 20

**Q.** And the “Foxtail, Giant plant response rating” value [13, 17]?
**A.** 20

**Q.** And the “Plant response rating, Foxtail, Giant” value [13, 18]?
**A.** 85

**Q.** What about the “Plant response rating, Foxtail, Giant” value [13, 19] of the same molecule?
**A.** 65
